Measurements from ChEMBL document CHEMBL1128034, “Structure activity of topoisomerase i poisons related to hoechst 33342” (Bioorg Med Chem Lett, 1994).

Experiments:
Format in all cases: functional, cell-based
[1] = tested on: PC-3; test: Cytotoxicity towards prostatic carcinoma (PC3) cells in human; Not active
[2] = tested on: RPMI 8402; test: Cytotoxicity towards lymphoblastoma (RPMI 8402) cells in human
[3] = tested on: RPMI 8402; test: Cytotoxicity towards camptothecin resistant CPT-K5 cell line in human
[4] = tested on: SK-MEL; test: Cytotoxicity towards melanoma (SK-Mel) cells in human; Not active
[5] = tested on: PC-3; test: Cytotoxicity towards prostatic carcinoma (PC3) cells in human
[6] = tested on: SK-MEL; test: Cytotoxicity towards melanoma (SK-Mel) cells in human

## COc1ccc(-c2nc3cc(-c4nc5cc([N+](=O)[O-])ccc5[nH]4)ccc3[nH]2)cc1
[1]
  IC50: Not Active
[2]
  IC50: 0.65 µM
[3]
  IC50: 3.9 µM
[4]
  IC50: Not Active

## COc1ccc(-c2nc3cc(-c4nc5cc(N6CCN(C)CC6)ccc5[nH]4)ccc3[nH]2)cc1
[2]
  IC50: < 0.05 µM
[5]
  IC50: 0.84 µM
[3]
  IC50: 0.57 µM
[6]
  IC50: 1.1 µM

## COc1ccc(-c2nc3cc(-c4nc5cc(CCN(C)C)ccc5[nH]4)ccc3[nH]2)cc1
[2]
  IC50: 0.61 µM
[5]
  IC50: 43 µM
[3]
  IC50: 6.1 µM
[6]
  IC50: 8.5 µM

## CCOc1ccc(-c2nc3cc(-c4nc5cc(N6CCN(C)CC6)ccc5[nH]4)ccc3[nH]2)cc1
[2]
  IC50: 0.005 µM
[5]
  IC50: 0.71 µM
[3]
  IC50: 0.5 µM
[6]
  IC50: 1.6 µM

## COc1ccc(-c2nc3cc(-c4nc5cc(CCCN(C)C)ccc5[nH]4)ccc3[nH]2)cc1
[2]
  IC50: 1.2 µM
[5]
  IC50: 28 µM
[3]
  IC50: 7.1 µM
[6]
  IC50: 10 µM

## COc1ccc(-c2nc3cc(-c4nc5cc(N)ccc5[nH]4)ccc3[nH]2)cc1
[2]
  IC50: 1.7 µM
[5]
  IC50: 19 µM
[3]
  IC50: 14 µM
[6]
  IC50: 6.2 µM

## COc1ccc(-c2nc3cc(-c4nc5cc(OC6CCN(C)CC6)ccc5[nH]4)ccc3[nH]2)cc1
[2]
  IC50: < 0.04 µM
[5]
  IC50: 0.38 µM
[3]
  IC50: 0.44 µM
[6]
  IC50: 2 µM

## COc1ccc(-c2nc3cc(-c4nc5cc(CN(C)C)ccc5[nH]4)ccc3[nH]2)cc1
[2]
  IC50: 0.38 µM
[5]
  IC50: 52 µM
[3]
  IC50: 6.3 µM
[6]
  IC50: 10 µM

## COc1ccc(-c2nc3cc(-c4nc5cc(N(C)C)ccc5[nH]4)ccc3[nH]2)cc1
[2]
  IC50: 0.13 µM
[5]
  IC50: 4.9 µM
[3]
  IC50: 0.65 µM
[6]
  IC50: 26 µM
